Results as given in patent publication US20110059909A1, “METHODS FOR TREATING INFLAMMATORY DISORDERS” (priority 2004, published 2011).

How the values were obtained:
TNFα = TNFα mRNA in LPS/IFNγ-stimulated primary astrocytes; assay type: cell-based, rat
Method: (§1) A 20-mer antisense oligonucleotide of the following sequence (5′-CGCTTGAGCGCAGACATCTT-3′, SEQ ID NO:1) targeted against rat lactosylceramide synthase (GalT-2) were synthesized by Integrated DNA Technology. A scrambled oligonucleotide (5′-CTGATATCGTCGATATCGAT-3′, SEQ ID NO:2) was also synthesized and used as control. Cells were counted and plated a day before transfection and the following day were treated with Oligofectamine (Invitrogen)-oligonucleotide complexes (200 nM oligo) under serum free conditions. 48 h following transfection, the protein levels of GalT-2 were analyzed using polyclonal antibodies raised against rat GalT-2 (Abjent Inc., CA). The transfected cells were stimulated with LPS/IFNγ (1 μg/ml) and levels of nitric oxide were checked 24 h following stimulation. iNOS mRNA and protein levels were checked at 6 h and 24 h, respectively, following stimulation of transfected cells.
(§2) 5 μg total RNA was treated with 2 U DNAse I (bovine pancreas, Sigma) for 15 min at room temperature in 18 μl volume containing 1×PCR buffer and 2 mM MgCl2. It was then inactivated by incubation with 2 μl of 25 mM EDTA at 65° C. for 15 min. 2 μl of random primers were added and annealed to the RNA according to the manufacturer's protocol. cDNA was synthesized in a 50 μl reaction containing 5 μg of total RNA and 50-100 U reverse transcriptase by incubating the tubes at 42° C. for 60 min. […]

IL-1β = IL-1β mRNA in LPS/IFNγ-stimulated primary astrocytes; assay type: cell-based, rat
Method: as §1, §2

small GTPase Ras = test: Quantification of Ras activation (GST-Raf-1 RBD pull-down) in primary astrocytes; assay type: cell-based, rat
Method: After stimulation, primary astrocytes in 6-well plates were washed with ice cold PBS and lysed in membrane lysis buffer (MLB; 0.5 ml of 25 mM HEPES, pH 7.5, 150 mM NaCl, 1% Igepal CA-630, 0.25% sodium deoxycholate, 10% glycerol, 10 mM MgCl2, 1 mM EDTA, 25 mM NaF, 1 mM of sodium orthovanadate, and EDTA free Complete™ protease inhibitor cocktail). After centrifugation (5,000×g) at 4° C. for 5 min, supernatant was used for Ras activation assay. One hundred μg of supernatant was used for binding with agarose conjugated Ras-binding domain (RBD) of Raf-1 which was expressed in BL21 (Invitrogen), Escherichia coli strain, transformed by pGEX-2T-GST-RBD in the presence of 0.1 mM of IPTG as described previously (Herrmann et al., 1995). The binding reaction was performed at 4° C. for 30 min in MLB. Following washing with MLB three times, Ras-RBD complex were denatured by adding of 2×SDS sample buffer. Ras protein was identified by western blot analysis with Ras antibodies from Upstate Biotechnology.

LacCer synthase (GalT-2) = target: T1, LacCer synthase (GalT-2) (Rattus norvegicus, UniProt O88419); test: Measurement of [14C]LacCer synthesis in primary astrocytes (HPTLC); assay type: cell-based
T1 construct: using cell lysates derived from cells stimulated with LPS/IFNγ; endogenous in cells; host or cells: rat primary astrocytes
T1 sequence (O88419 1-382): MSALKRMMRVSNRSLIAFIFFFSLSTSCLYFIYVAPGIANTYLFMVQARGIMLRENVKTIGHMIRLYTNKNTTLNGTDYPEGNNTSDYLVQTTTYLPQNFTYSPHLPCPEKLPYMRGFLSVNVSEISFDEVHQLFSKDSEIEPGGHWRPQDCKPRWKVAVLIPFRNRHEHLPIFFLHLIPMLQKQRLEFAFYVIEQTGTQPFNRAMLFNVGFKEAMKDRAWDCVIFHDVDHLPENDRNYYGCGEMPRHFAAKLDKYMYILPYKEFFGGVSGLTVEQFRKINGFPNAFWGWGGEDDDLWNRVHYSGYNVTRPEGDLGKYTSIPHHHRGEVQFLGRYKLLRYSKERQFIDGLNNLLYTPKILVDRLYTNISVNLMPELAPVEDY
Method: Cultured cells were incubated in growth medium containing [^14C]galactose (5 μCi/ml) for 24 h as described previously. The medium was removed, and the cell monolayer was washed with sterile PBS. After the stimulation with LPS/IFNγ (1 μg/ml; 10 U/ml) for various durations, cells were then harvested and washed with ice cold PBS and lysed by sonication. 200 μg of protein was used for extraction of lipids using Chloroform:Methanol:HCl (100:100:1). The organic phase was dried under nitrogen. Glycosphingolipids were resolved by high performance thin layer chromatography using chloroform/methanol/0.25% KCl (70:30:4, v/v/v) as the developing solvent. The gel area corresponding to LacCer was scraped, and radioactivity was measured employing “liquiscint” (NEN Life Science Products) as a scintillating fluid.

[1] = LPS/IFNγ-stimulated astrocytes, 48 h after transfection

Compound	Reversal of AS-mediated inhibition of TNFα expression (TNFα; exogenous LacCer, LPS/IFNγ)	Reversal of AS-mediated inhibition of IL-1β expression (IL-1β; exogenous LacCer, LPS/IFNγ)	Reversal of LY-mediated inhibition of TNFα-mediated Ras activation (small GTPase Ras; LY 30 μM plus LacCer)	Reversal of PDMP-mediated reduction of LPS/IFNγ-mediated Ras activation (small GTPase Ras; LacCer plus PDMP 50 μM, LPS/IFNγ 5 min)	Reversal of PDMP-mediated inhibition of TNFα-induced Ras activation (small GTPase Ras; PDMP 25 μM plus LacCer)	Reversal of DMS-mediated inhibition of Ras activation (small GTPase Ras; exogenous lipid)	[14C]LacCer biosynthesis following LPS/IFNγ-stimulation (LacCer synthase (GalT-2))	LPS/IFNγ-mediated activation of Ras (small GTPase Ras; PDMP 50 μM 0.5 h, LPS/IFNγ 5 min)	TNFα-induced Ras activation (small GTPase Ras; pretreated 0.5 h, TNFα)	[14C]LacCer synthesis upon TNFα-stimulation (LacCer synthase (GalT-2); TNFα 1 ng/ml)	TNFα mRNA expression (TNFα; [1])	IL-1β mRNA expression (IL-1β; [1])
Lactosylceramide [LacCer]	reversed	reversed	bypassed	fully reversed	fully reversed	reversed	–	–	–	–	–	–
CCCCCCCCCC(=O)NC(CN1CCOCC1)C(O)c1ccccc1.Cl [PDMP, D-threo-1-Phenyl-2-decanoylamino-3-morpholino-1-propanol.HCl]	–	–	–	–	–	–	inhibited this increase	reduced	attenuated	–	–	–
AS GalT-2 oligonucleotides: 20-mer antisense oligonucleotide 5′-CGCTTGAGCGCAGACATCTT-3′, SEQ ID NO:1, against rat lactosylceramide synthase (GalT-2) (antisense CGCTTGAGCGCAGACATCTT; chemistry not given here)	–	–	–	–	–	–	diminished synthesis	–	–	diminished synthesis	suppressed	suppressed
